Key:
[1] = target: T1, Multidrug resistance-associated protein 1 (Homo sapiens, UniProt P33527); assay: Inhibitory activity against MRP1 in HeLa-T5 cells; assay type: functional, cell-based
[2] = target: T1, Multidrug resistance-associated protein 1; assay: Inhibitory activity against MRP1-mediated LTC4 uptake into membrane vesicles from HeLa-T5 cells expressing MRP1; assay type: functional, cell-based

T1 sequence (P33527 whole entry): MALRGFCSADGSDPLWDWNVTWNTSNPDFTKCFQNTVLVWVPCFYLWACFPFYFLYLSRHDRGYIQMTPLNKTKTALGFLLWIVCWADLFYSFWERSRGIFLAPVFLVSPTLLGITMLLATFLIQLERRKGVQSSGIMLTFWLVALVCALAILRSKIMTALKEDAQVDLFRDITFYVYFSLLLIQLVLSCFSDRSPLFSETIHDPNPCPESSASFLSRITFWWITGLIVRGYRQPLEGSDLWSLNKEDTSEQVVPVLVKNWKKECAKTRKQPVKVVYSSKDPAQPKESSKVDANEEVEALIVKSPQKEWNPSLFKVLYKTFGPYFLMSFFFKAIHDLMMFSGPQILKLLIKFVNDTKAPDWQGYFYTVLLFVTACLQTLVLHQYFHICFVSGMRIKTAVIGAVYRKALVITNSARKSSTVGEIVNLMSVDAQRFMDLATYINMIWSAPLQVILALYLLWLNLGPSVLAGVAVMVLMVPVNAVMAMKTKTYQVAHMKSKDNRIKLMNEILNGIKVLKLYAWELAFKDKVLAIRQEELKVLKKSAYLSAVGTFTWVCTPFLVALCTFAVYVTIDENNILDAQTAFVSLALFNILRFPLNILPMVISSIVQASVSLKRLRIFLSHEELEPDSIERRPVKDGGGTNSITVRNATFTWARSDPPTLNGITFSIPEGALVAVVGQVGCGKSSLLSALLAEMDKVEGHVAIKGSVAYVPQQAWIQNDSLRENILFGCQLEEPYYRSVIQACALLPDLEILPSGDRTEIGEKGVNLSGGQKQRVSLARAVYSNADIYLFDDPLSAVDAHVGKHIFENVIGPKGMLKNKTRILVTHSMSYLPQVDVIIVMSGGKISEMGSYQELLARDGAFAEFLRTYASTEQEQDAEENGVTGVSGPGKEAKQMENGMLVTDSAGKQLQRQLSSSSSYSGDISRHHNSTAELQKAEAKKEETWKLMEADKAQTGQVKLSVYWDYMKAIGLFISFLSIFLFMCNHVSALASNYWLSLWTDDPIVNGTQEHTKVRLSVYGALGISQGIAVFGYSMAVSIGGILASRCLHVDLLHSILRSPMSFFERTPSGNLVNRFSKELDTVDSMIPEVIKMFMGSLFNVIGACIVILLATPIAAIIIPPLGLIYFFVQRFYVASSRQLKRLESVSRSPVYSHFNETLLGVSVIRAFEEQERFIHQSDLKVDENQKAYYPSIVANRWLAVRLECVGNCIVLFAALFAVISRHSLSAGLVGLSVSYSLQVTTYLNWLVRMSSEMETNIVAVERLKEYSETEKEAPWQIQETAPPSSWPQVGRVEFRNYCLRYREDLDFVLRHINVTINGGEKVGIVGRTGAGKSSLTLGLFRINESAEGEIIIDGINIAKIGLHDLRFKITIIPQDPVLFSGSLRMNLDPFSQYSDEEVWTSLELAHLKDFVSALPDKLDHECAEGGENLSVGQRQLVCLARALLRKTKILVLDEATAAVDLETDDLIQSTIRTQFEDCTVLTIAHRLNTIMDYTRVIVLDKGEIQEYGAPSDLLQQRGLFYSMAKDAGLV

EC50 [1] [nM]	IC50 [2] [nM]	Compound
250	270	COc1cc(C(=O)NC[C@@H]2CCC[C@H](n3c(=O)c4c(C)onc4c4c(Cl)cccc43)C2)cc(OC)c1OC (racemic)
180	38	Cc1onc2c1c(=O)n([C@H]1CCC[C@@H](CNC(=O)c3ccccc3)C1)c1cccc(Cl)c21 (racemic)
640	1010	Cc1onc2c1c(=O)n([C@H]1CCC[C@H](CNC(=O)c3ccccc3)C1)c1cccc(Cl)c21 (racemic)
420	–	COc1cc(C(=O)NC[C@H]2CCC[C@H](n3c(=O)c4c(C)onc4c4c(Cl)cccc43)C2)cc(OC)c1OC (racemic)
